Results published in PubChem BioAssay (NCI).
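Five compound concentrations were applied to cells in 96-well plates for 48 hours; endpoints were derived by simple linear interpolation of the resulting dose-response curve. Definition used: TGI = concentration required for complete inhibition of growth.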

Assays:
Experiment in all cases: NCI tumour cell line growth inhibition, 48 h
SK-OV-3 ovarian = tested on: SK-OV-3 ovarian
RXF 393 renal = tested on: RXF 393 renal
SN12C renal = tested on: SN12C renal
HT29 colon = tested on: HT29 colon
MDA-MB-231 breast = tested on: MDA-MB-231 breast
DU-145 prostate = tested on: DU-145 prostate
OVCAR-8 ovarian = tested on: OVCAR-8 ovarian
HCC-2998 colon = tested on: HCC-2998 colon
IGROV1 ovarian = tested on: IGROV1 ovarian
KM12 colon = tested on: KM12 colon
K-562 leukemia = tested on: K-562 leukemia
MALME-3M melanoma = tested on: MALME-3M melanoma
SF-295 CNS = tested on: SF-295 CNS
786-0 renal = tested on: 786-0 renal
CAKI-1 renal = tested on: CAKI-1 renal
SW-620 colon = tested on: SW-620 colon
RPMI-8226 leukemia = tested on: RPMI-8226 leukemia
SK-MEL-28 melanoma = tested on: SK-MEL-28 melanoma
T-47D breast = tested on: T-47D breast
CCRF-CEM leukemia = tested on: CCRF-CEM leukemia
MCF7 breast = tested on: MCF7 breast
SK-MEL-5 melanoma = tested on: SK-MEL-5 melanoma
HOP-62 NSCLC = tested on: HOP-62 NSCLC
COLO 205 colon = tested on: COLO 205 colon
SF-268 CNS = tested on: SF-268 CNS
NCI-H23 lung = tested on: NCI-H23 lung
HCT-15 colon = tested on: HCT-15 colon
UACC-62 melanoma = tested on: UACC-62 melanoma
TK-10 renal = tested on: TK-10 renal
A549 NSCLC = tested on: A549 NSCLC
HL-60(TB) leukemia = tested on: HL-60(TB) leukemia
MDA-N = tested on: MDA-N
SR leukemia = tested on: SR leukemia
M14 melanoma = tested on: M14 melanoma
SNB-75 CNS = tested on: SNB-75 CNS
UACC-257 melanoma = tested on: UACC-257 melanoma
EKVX NSCLC = tested on: EKVX NSCLC
LOX IMVI melanoma = tested on: LOX IMVI melanoma
PC-3 prostate = tested on: PC-3 prostate
HCT-116 colon = tested on: HCT-116 colon
OVCAR-3 ovarian = tested on: OVCAR-3 ovarian
SNB-19 CNS = tested on: SNB-19 CNS
HOP-92 NSCLC = tested on: HOP-92 NSCLC
OVCAR-5 ovarian = tested on: OVCAR-5 ovarian
SK-MEL-2 melanoma = tested on: SK-MEL-2 melanoma
U251 CNS = tested on: U251 CNS
NCI/ADR-RES ovarian = tested on: NCI/ADR-RES ovarian
MOLT-4 leukemia = tested on: MOLT-4 leukemia
ACHN renal = tested on: ACHN renal
MDA-MB-435 = tested on: MDA-MB-435
NCI-H460 lung = tested on: NCI-H460 lung
A498 renal = tested on: A498 renal
UO-31 renal = tested on: UO-31 renal
OVCAR-4 ovarian = tested on: OVCAR-4 ovarian

Compound: COc1ccc(C(=O)/C=C/c2ccc(OCC(=N)N)cc2)cc1OC
- TGI (SK-OV-3 ovarian): > 10 µM
- TGI (RXF 393 renal): > 10 µM
- TGI (SN12C renal): > 10 µM
- TGI (HT29 colon): > 10 µM
- TGI (MDA-MB-231 breast): > 10 µM
- TGI (DU-145 prostate): > 10 µM
- TGI (OVCAR-8 ovarian): > 10 µM
- TGI (HCC-2998 colon): > 10 µM
- TGI (IGROV1 ovarian): > 10 µM
- TGI (KM12 colon): 8.31 µM
- TGI (K-562 leukemia): > 10 µM
- TGI (MALME-3M melanoma): > 10 µM
- TGI (SF-295 CNS): > 10 µM
- TGI (786-0 renal): > 10 µM
- TGI (CAKI-1 renal): > 10 µM
- TGI (SW-620 colon): > 10 µM
- TGI (RPMI-8226 leukemia): > 10 µM
- TGI (SK-MEL-28 melanoma): > 10 µM
- TGI (T-47D breast): > 10 µM
- TGI (CCRF-CEM leukemia): 8.86 µM
- TGI (MCF7 breast): > 10 µM
- TGI (SK-MEL-5 melanoma): > 10 µM
- TGI (HOP-62 NSCLC): > 10 µM
- TGI (COLO 205 colon): > 10 µM
- TGI (SF-268 CNS): > 10 µM
- TGI (NCI-H23 lung): > 10 µM
- TGI (HCT-15 colon): > 10 µM
- TGI (UACC-62 melanoma): > 10 µM
- TGI (TK-10 renal): > 10 µM
- TGI (A549 NSCLC): > 10 µM
- TGI (HL-60(TB) leukemia): 4.82 µM
- TGI (MDA-N): > 10 µM
- TGI (SR leukemia): 4.39 µM
- TGI (M14 melanoma): > 10 µM
- TGI (SNB-75 CNS): 9.98 µM
- TGI (UACC-257 melanoma): > 10 µM
- TGI (EKVX NSCLC): > 10 µM
- TGI (LOX IMVI melanoma): > 10 µM
- TGI (PC-3 prostate): > 10 µM

Compound: COC(=O)N1C[C@@]2(C=CC3(CC2)OCCO3)c2ccccc21
- TGI (SK-OV-3 ovarian): > 100 µM
- TGI (SN12C renal): > 100 µM
- TGI (HT29 colon): > 100 µM
- TGI (MDA-MB-231 breast): > 100 µM
- TGI (DU-145 prostate): > 100 µM
- TGI (OVCAR-8 ovarian): > 100 µM
- TGI (HCT-116 colon): > 100 µM
- TGI (HCC-2998 colon): > 100 µM
- TGI (OVCAR-3 ovarian): > 100 µM
- TGI (IGROV1 ovarian): > 100 µM
- TGI (KM12 colon): > 100 µM
- TGI (K-562 leukemia): > 100 µM
- TGI (SNB-19 CNS): > 100 µM
- TGI (SF-295 CNS): > 100 µM
- TGI (786-0 renal): > 100 µM
- TGI (CAKI-1 renal): > 100 µM
- TGI (HOP-92 NSCLC): > 100 µM
- TGI (SW-620 colon): > 100 µM
- TGI (RPMI-8226 leukemia): > 100 µM
- TGI (OVCAR-5 ovarian): > 100 µM
- TGI (SK-MEL-28 melanoma): > 100 µM
- TGI (T-47D breast): > 100 µM
- TGI (CCRF-CEM leukemia): > 100 µM
- TGI (MCF7 breast): > 100 µM
- TGI (SK-MEL-2 melanoma): > 100 µM
- TGI (SK-MEL-5 melanoma): > 100 µM
- TGI (HOP-62 NSCLC): > 100 µM
- TGI (COLO 205 colon): > 100 µM
- TGI (U251 CNS): > 100 µM
- TGI (NCI/ADR-RES ovarian): 95.6 µM
- TGI (NCI-H23 lung): > 100 µM
- TGI (HCT-15 colon): > 100 µM
- TGI (UACC-62 melanoma): > 100 µM
- TGI (MOLT-4 leukemia): > 100 µM
- TGI (ACHN renal): > 100 µM
- TGI (TK-10 renal): > 100 µM
- TGI (MDA-MB-435): 74.5 µM
- TGI (NCI-H460 lung): > 100 µM
- TGI (A549 NSCLC): > 100 µM
- TGI (HL-60(TB) leukemia): 58.4 µM
- TGI (MDA-N): > 100 µM
- TGI (A498 renal): > 100 µM
- TGI (SR leukemia): > 100 µM
- TGI (M14 melanoma): > 100 µM
- TGI (SNB-75 CNS): > 100 µM
- TGI (UACC-257 melanoma): > 100 µM
- TGI (EKVX NSCLC): > 100 µM
- TGI (UO-31 renal): > 100 µM
- TGI (LOX IMVI melanoma): > 100 µM
- TGI (OVCAR-4 ovarian): > 100 µM
- TGI (PC-3 prostate): > 100 µM
